For one compound, Abtotal/Ab42 selectivity and IC50 results are on record in patent US8426403B2, “Gamma secretase modulators” (priority 2007, dated 2013).

The structures appear in SMILES notation.

This experiment has as its system Aβ42. Description: Secretase Reaction and Aβ Analysis in Whole Cells (total Aβ, Aβ40, Aβ42 by ECL sandwich immunoassay). The format is cell-based. Conditions: HEK293 cells overexpressing APP with Swedish and London mutations. As to the method: Secretase Reaction and Aβ Analysis in Whole Cells: HEK293 cells overexpressing APP with Swedish and London mutations were treated with the specified compounds for 5 hour at 37° C. in […] of DMEM medium containing 10% fetal bovine serum. At the end of the incubation, total Aβ, Aβ40 and Aβ42 were measured using electrochemiluminescence (ECL) based sandwich immunoassays. Total Aβ was determined using a pair of antibodies TAG-WO2 and biotin-4G8, Aβ40 was identified with antibody pairs TAG-G2-10 and biotin-4G8, while Aβ42 was identified with TAG-G2-11 and biotin-4G8. The ECL signal was measured using Sector Imager 2400 (Meso Scale Discovery).

With `COc1cc(/C=C/C2=NC(=O)C(C)(c3ccc(F)cc3)N2)ccc1-n1cnc(C)c1` (centres unmarked) [Compound G4], where the note is “total Aβ versus Aβ42”, the Abtotal/Ab42 selectivity was 11 fold. Further, under “Homo sapiens, 5 hour at 37° C., ECL sandwich immunoassay, read-out: Ab42 IC50”, the IC50 (usually the concentration that inhibits the measured activity by half) was determined as 1110 nM.
